{"source": "patent US12697317B2", "about": "(priority 2019, dated 2026)", "key": {"[1]": {"assay": "Safety/tolerability of LOPA in healthy subjects (SAD/MAD), Study 1", "conditions": "Study 1, healthy subjects, FIG. 2", "protocol": "(§1) Pharmacokinetics Analysis\n(§2) Adverse events (AEs) were assessed and coded using the Medical Dictionary for Regulatory Activities (MedDRA) preferred term and system organ class.\n(§3) The evaluation of potential correlation between central nervous system (CNS) AEs and PAA exposure was conducted on data from Studies 1-3. The first reported drug-related CNS AE was included in the analysis. For each such CNS AE, two PAA concentrations were identified based on the time of onset of the AE and the time of PAA assessment: (1) the closest PAA concentration before the onset of the AE; and (2) the closest PAA concentrations after the onset of the […] All time points were calculated relative to the start of study drug infusion."}, "[2]": {"assay": "Population PK modeling of PAA, Studies 2, 3 and 5", "assay_type": "in vivo, human", "protocol": "(§4) Both non-compartmental analysis and population PK analysis were conducted to identify factors attributing to the PK of PAA, ORN, and PAGN. Ethnicity factor on the PK of PAA was explored using the PK data from Caucasian, Chinese, and Japanese healthy subjects in Studies 1 and 4.\nHepatic impairment also altered PAA plasma exposure. To identify the factors contributing to PAA plasma exposure, population PK modeling was conducted. A one-compartment model with Michaelis-Menten kinetics describing the formation of PAGN from PAA adequately quantified PAA plasma concentration profiles in healthy subjects and patients. Body weight was identified as a significant covariate for the PK of PAA in both healthy subjects and patients. Other factors such as ethnicity and hepatic/renal impairment on the PK of PAA are described below."}, "[3]": {"assay": "PK of PAA, ORN and PAGN in severe renal impairment vs normal renal function, Study 5", "description": "Seven subjects with severe renal impairment and seven age, sex, and weight-matched subjects with normal renal function participated, wherein 5 males and 2 females participated in both groups.\n(§5) Plasma concentrations of ORN, PAA, PAGN, and urine concentrations of PAGN were measured using a validated LC-MS/MS method."}, "[4]": {"assay": "Steady state plasma PAA in hospitalized patients with cirrhosis and HE, Study 3", "assay_type": "in vivo, human", "conditions": "for median concentration of PAA at steady state: Study 3, Child-Pugh C patients", "protocol": "as §1, §4"}, "[5]": {"assay": "clinical", "conditions": "human, in vivo, iv", "description": "as §5\nHepatic dysfunction on PAA PK was investigated using the PK data from patients in Studies 2 and 3. Renal dysfunction on PAA and PAGN plasma exposure was explored using the PK data from Studies 2, 3 and 5."}, "[6]": {"assay": "Safety/tolerability of LOPA in patients with stable cirrhosis, Study 2", "conditions": "Study 2, FIG. 3", "protocol": "as §1, §2, §3"}, "[7]": {"assay": "Plasma exposure by baseline creatinine clearance group (FIG. 1; Studies 2, 3 and 5)", "protocol": "Renal dysfunction is expected to elevate PAGN plasma concentrations. AE data from subjects with severe renal impairment were summarized. […] CLcr of 35 mL/min was chosen as a cut-off value in order to have relatively sufficient sample size for the group with relatively worse renal function."}, "[8]": {"assay": "Safety of LOPA in hospitalized patients with cirrhosis, hyperammonemia and acute HE, Study 3", "conditions": "hospitalized patients with hyperammonemia and an acute episode of HE", "protocol": "as §1, §2, §3"}, "[9]": {"conditions": "normal renal function, LOPA 15 g/24 hour IV"}, "[10]": {"conditions": "severely impaired renal function, LOPA 7 g/24 hours IV"}}, "data": [{"smiles": "O=C(O)Cc1ccccc1", "note": "[PAA, phenylacetic acid]", "values": [{"measurement": "severity of CNS AEs vs PAA plasma concentrations", "setting": "[1]", "value": "appeared to be correlated"}, {"measurement": "PAA PK: increase in Cmax and AUC with dose", "setting": "IV LOPA from 10 g/4 h or 20 g/24 h up, healthy subjects and subjects with stable cirrhosis", "value": "greater than dose-proportional increase"}, {"measurement": "Recovered PAA as unchanged compound in urine", "setting": "after IV LOPA", "value": "< 1 % of the administered dose of PAA"}, {"measurement": "impact of renal dysfunction on the exposure of PAA", "setting": "[2]; mild, moderate or severe renal dysfunction, population PK analysis", "value": "insignificant impact"}, {"measurement": "PAA exposure at steady state, Child-Pugh C higher than Child-Pugh B", "setting": "[2]; population PK model, same body weight", "value": 36, "unit": "%"}, {"measurement": "mean dose normalized PAA AUCt", "setting": "[3]; [9]", "value": 54.9, "unit": "µg·h/mL/g"}, {"measurement": "mean dose normalized PAA Cmax", "setting": "[3]; [9]", "value": 2.61, "unit": "µg/mL/g"}, {"measurement": "mean dose normalized PAA AUCt", "setting": "[3]; [10]", "value": 45.4, "unit": "µg·h/mL/g"}, {"measurement": "mean dose normalized PAA Cmax", "setting": "[3]; [10]", "value": 1.58, "unit": "µg/mL/g"}, {"measurement": "median concentration of PAA at steady state", "setting": "[4]; 10 g/24 hr (n=23)", "value": 118, "unit": "µg/mL"}, {"measurement": "median concentration of PAA at steady state", "setting": "[4]; 15 g/24 hr (n=38)", "value": 120, "unit": "µg/mL"}, {"measurement": "plasma PAA concentration at steady state, higher in Child-Pugh C than Child-Pugh B patients", "setting": "[4]; Study 3, LOPA 15 g/24 h, during infusion period", "value": "approximately 35%"}, {"measurement": "half-life", "setting": "[5]; 3 g/4 h", "value": 0.65, "unit": "h"}, {"measurement": "half-life", "setting": "[5]; 30 g/4 h", "value": 5.99, "unit": "h"}, {"measurement": "half-life", "setting": "[5]; 30 g/24 h", "value": 1.25, "unit": "h"}, {"measurement": "half-life", "setting": "[5]; 60 g/24 h", "value": 4.09, "unit": "h"}, {"measurement": "PAA concentrations vs CNS AE occurrence", "setting": "[6]", "value": "No correlation"}, {"measurement": "PAA plasma concentrations, CLcr ≤35 mL/min group vs >35 mL/min group", "setting": "[7]", "value": "no difference"}, {"measurement": "PAA exposure related neurotoxicity", "setting": "[8]", "value": "No PAA exposure related neurotoxicity"}]}]}
